Measured values reported in PMC6407204, “Oral administration of the cannabigerol derivative VCE-003.2 promotes subventricular zone neurogenesis and protects against mutant huntingtin-induced neurodegeneration” (Translational Neurodegeneration, 2019).

How the values were obtained:
[1] = target: T1, CYP1A (Homo sapiens, UniProt P05177); format: in vitro ADME; details: Substrate = Etoxyresorufin, human liver microsomes
T1 construct: from tissue; host or cells: human liver microsomes
Procedure: (§1) Supplementary file 40035_2019_148_MOESM2_ESM.pdf: Additional file 2: Cytochrome P450 Inhibition (IC50 Determination). CYP1A Inhibition. VCE-003.2 (0.1, 0.25, 1, 2.5, 10, 25 μM in DMSO; final DMSO concentration = 0.3%) was incubated with human liver microsomes (0.25 mg/mL) and NADPH (1 mM) in the presence of the probe substrate ethoxyresorufin (0.5 μM) for 5 min at 37 °C. The selective CYP1A inhibitor, alpha-naphthoflavone, was screened alongside the test compounds as a positive control. CYP2B6 Inhibition. VCE-003.2 (0.1, 0.25, 1, 2.5, 10, 25 μM in DMSO; final DMSO concentration = 0.3%) was incubated with human liver microsomes (0.1 mg/mL) and NADPH (1 mM) in the presence of the probe substrate bupropion (110 μM) for 5 min at 37 °C. The selective CYP2B6 inhibitor, ticlopidine, was screened alongside the test compounds as a positive control. CYP2C8 Inhibition. […] For the CYP1A incubations, the reactions were terminated by methanol, and the formation of the metabolite, resorufin, was monitored by fluorescence (excitation wavelength = 535 nm, emission wavelength = 595 nm). […] Hydroxybupropion, 6α-hydroxypaclitaxel and 6ß-hydroxytestosterone were analyzed separately by LC-MS/MS. […]

[2] = tested on: relevant cytochrome P450 isoforms; format: in vitro ADME; details: human liver microsomes, up to 25 μM
Procedure: as §1

T1 sequence (P05177 2-516 limits assumed): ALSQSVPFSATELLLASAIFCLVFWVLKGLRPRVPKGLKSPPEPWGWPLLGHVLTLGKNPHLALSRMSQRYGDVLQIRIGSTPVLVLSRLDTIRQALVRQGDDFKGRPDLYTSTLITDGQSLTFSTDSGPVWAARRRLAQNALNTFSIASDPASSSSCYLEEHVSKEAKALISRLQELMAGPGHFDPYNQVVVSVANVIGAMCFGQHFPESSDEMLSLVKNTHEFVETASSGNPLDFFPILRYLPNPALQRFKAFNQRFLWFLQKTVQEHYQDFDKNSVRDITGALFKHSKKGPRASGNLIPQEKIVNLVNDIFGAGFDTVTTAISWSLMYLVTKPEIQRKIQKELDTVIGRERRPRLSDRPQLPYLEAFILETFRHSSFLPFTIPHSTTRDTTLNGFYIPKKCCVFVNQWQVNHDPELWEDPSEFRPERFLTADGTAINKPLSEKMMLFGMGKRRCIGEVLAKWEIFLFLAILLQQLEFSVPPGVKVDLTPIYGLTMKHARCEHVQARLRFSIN

SMILES: CCCCCC1=C(NCC)C(=O)C(CC=C(C)CCC=C(C)C)=C(O)C1=O [VCE-003.2, 2-(3,7-dimethyl-octa-2,6-dienyl)-6-ethylamino-3-hydroxy-5-pentyl-(1,4) benzoquinone]
- IC50 [1]: > 25 µM
- inhibition of cytochrome P450 isoforms (in words) [2]: did not inhibit significantly
